# According to US20050203059A1, “Methods and compositions for treatment of ischemia” (priority 2002, published 2005):
# Key:
# GSK3 = experiment: Cell-based glycogen synthase assay for GSK3 inhibitory activity (CHO-HIRC cells); conditions: read-out: EC50 (glycogen synthase activity stimulated to 50% of the maximal level), 20 minutes incubation
# Experimental: Likewise, the ability of GSK3 inhibitor compounds to potentiate insulin signaling by activating glycogen synthase can be readily ascertained using a cell-based glycogen synthase activity assay. This assay employs cells that respond to insulin stimulation by increasing glycogen synthase activity, such as the CHO-HIRC cell line, which overexpresses wild-type insulin receptor (˜100,000 binding sites/cell). […] The assay can be carried out by incubating serum-starved CHO-HIRC cells in the presence of various concentrations of compounds of the present invention in the medium, followed by cell lysis at the end of the incubation period. […] The concentration of candidate GSK3 inhibitor that increased glycogen synthase activity to half of its maximal level (i.e., the EC50) can be calculated by fitting a four parameter sigmoidal curve using routine curve fitting methods that are well known to those having ordinary skill in the art.
# CHO-HIRC cells are maintained in 10 cm tissue culture plates in Ham's F12 medium/10% dialyzed fetal bovine serum. Cells from a confluent 10 cm plate are harvested and divided into the 6 wells of a 6-well tissue culture plate to a final volume of 2 ml of medium. The cells are left to grow at 37° C. for 24 hours. The cells are then washed three times in Ham's F12 medium containing no fetal bovine serum, and finally the cells are left for a further 24 hours at 37° C. in 2 ml of the serum-free medium.
# At the end of this time, 20 μl of compound dissolved in DMSO is added to each well and incubated at 37° C. After 20 minutes the medium is removed and the cells are washed once in PBS at room temperature and then rapidly frozen in the plates in liquid nitrogen. […] Cells are scraped from the plates and frozen in Eppendorf tubes on dry ice. Lysates are then thawed and refrozen on dry ice.
# After rethawing, lysates are spun at 14,000 g for 15 minutes. The supernatants are then removed and stored on ice. […] Reactions are incubated at 30° C. for 30 minutes and then spotted onto a 2 cm square 31ET chromatograph paper (Whatman).
# Filters are added to 5 ml of liquid scintillant and counted in a liquid scintillation counter. The percentage of the total glycogen synthase that is active in any lysate is expressed as 100× (cpm minus glucose-6-phosphate)/(cpm plus glucose-6-phosphate). Such values are determined in duplicate for 5 different concentrations of compound and for DMSO alone, and the values are then plotted against the logarithm of the concentration. The concentration of compound which stimulates glycogen synthase activity to 50% of the maximal level is determined by fitting a sigmoidal curve to the plotted data. The maximal level is defined as that level to which glycogen synthase activity tends asymtotically as the concentration of test compound increases substantially beyond the EC50.
# rat hippocampi cells = experiment: GSK3 inhibitor protection of rat hippocampi cells from glutamate induced damage (Trypan Blue count); assay type: cell-based; set-up: Cells Surviving (%) Without Glutamate (control): concentration or dose not given beside the values; conditions: rat hippocampal neurons, average of 1 to 4 replications; for Cells Surviving (%) With Glutamate: 200 μM glutamic acid for 5 minutes, counted 20 to 24 hours later; for Cells Surviving (%) Without Glutamate (control): not exposed to glutamic acid
# Experimental: Hippocampi were dissected from embryonic day 18-19 rats. The tissue was collected in Hibernate™ media (Gibco BRL) and minced into 1 mm pieces. The tissue was dissociated using the Papain Dissociation System (Worthington Biochemical Corporation). Following isolation the cells were suspended in serum-free media composed of Neurobasal™ (Gibco BRL), 2% B27 supplement (Gibco BRL), L-glutamine and antibiotics. Cells were plated in 12 well plates tissue culture dishes coated with poly-L-lysine at a concentration of 7.5×10^4 cells per well. Following 10-14 days at 37° C. in 5% CO2, the GSK3 inhibitor compounds set forth below were added. Four to eight hours following compound addition, the conditioned media was removed from the cells and the cultures were stored at 37° C. […] The cultures were then either exposed for 5-minutes at room temperature to 200 μM glutamic acid in the same HBSS, or not exposed to glutamic acid as a control. Following exposure, the cultures were rinsed three times with the buffer and then returned to their original conditioned media containing the GSK3 inhibitor compounds. Twenty to 24 hours following glutamic acid exposure, the cultures were rinsed in HBSS and exposed for 10 minutes to Trypan Blue. This dye is taken up by dead cells. The cultures were rinsed then fixed for 30 minutes in 4% paraformaldehyde. The number of live and dead (blue) large neurons are counted (at least 200 cells from each well) by phase contrast microscopy and photographed, and the percentage of surviving cells was determined. […] The results are shown in the following Table 2 as the average of 1 to 4 replications: […]
Compound,EC50 (GSK3) [nM],Cells Surviving (%) With Glutamate (rat hippocampi cells) [%],Cells Surviving (%) Without Glutamate (control) (rat hippocampi cells) [%]
Nc1nc(NCCNc2ncc(-c3ncc[nH]3)c(-c3ccc(Cl)cc3Cl)n2)ccc1[N+](=O)[O-] [L],257,59,90
Nc1nc(NCCNc2ncc(N3CCOCC3)c(-c3ccc(Cl)cc3Cl)n2)ccc1[N+](=O)[O-] [U],73.5,62,93
Nc1nc(NCCNc2ncc(-c3ncc[nH]3)c(-c3ccc(F)cc3Br)n2)ccc1[N+](=O)[O-] [Compound S],220,50,95
CN(CCNc1ccc([N+](=O)[O-])c(N)n1)c1ncc(-c2ncc[nH]2)c(-c2ccc(Cl)cc2Cl)n1 [Q],17,67,95
Nc1nc(NCCNc2ncc(-n3ccnc3)c(-c3ccc(Cl)cc3Cl)n2)ccc1[N+](=O)[O-] [Y],75,61,94
Nc1nc(NCCNc2ncc(-n3cc(Cl)ccc3=O)c(-c3ccc(Cl)cc3Cl)n2)ccc1[N+](=O)[O-] [O],132,61,94
Nc1nc(NCCNc2ncc(CO)c(-c3ccc(Cl)cc3Cl)n2)ccc1[N+](=O)[O-] [K],147,73,86
FC(F)(F)c1ccc(NCCNc2ncc(-c3ncc[nH]3)c(-c3ccc(Cl)cc3Cl)n2)nc1 [V],1240,49,94
N#Cc1ccc(-c2nc(NCCNc3ccc([N+](=O)[O-])cn3)ncc2-n2ccnc2)cc1 [T],1280,50,95
O=[N+]([O-])c1ccc(NCCNc2ccc(-c3ncc[nH]3)c(-c3ccc(Cl)cc3Cl)n2)nc1 [H],121,67,94
O=[N+]([O-])c1ccc(NCCNc2ncc(-c3ncc[nH]3)c(-c3ccc(Cl)cc3Cl)n2)nc1 [J],375,57,95
Nc1nc(NCCNc2ncc(NC(=O)NCCN3CCOCC3)c(-c3ccc(Cl)cc3Cl)n2)ccc1[N+](=O)[O-] [D],3000,60,96
Nc1nc(NCCNc2ncc(-c3ncc[nH]3)c(-c3ccc(F)cc3Cl)n2)ccc1[N+](=O)[O-] [X],424,50,93
FC(F)(F)c1ccc(NCCNc2ccc(-c3ncc[nH]3)c(-c3ccc(Cl)cc3Cl)n2)nc1 [F],–,51,96
Nc1nc(NCCNc2ncc(-n3cccn3)c(-c3ccc(Cl)cc3Cl)n2)ccc1[N+](=O)[O-] [W],99.8,61,94
CN1CCN(c2cnc(NCCNc3ccc([N+](=O)[O-])c(N)n3)nc2-c2ccc(Cl)cc2Cl)CC1 [N],53.4,67,91
Nc1nc(NCCNc2ncc(N3C(=O)CCC3=O)c(-c3ccc(Cl)cc3Cl)n2)ccc1[N+](=O)[O-] [M],85,61,87
"IGF1: IGF1, used as a control in the rat hippocampi cell survival test",–,51,93
COCCNC(=O)Cn1c(=O)n(C2CCN(C(=O)N3CCc4ccccc4C3)CC2)c2ccccc21 [E],–,73,88
